Measurements from US20140093884A1, “Process for Identifying Novel Anti-Inflammatory Molecules with Reduced Direct Transrepression of Genes Induced by Glucocorticoids” (UNIVERSITE DE STRASBOURG, priority 2011, published 2014).

Assays:
[1] = tested on: (+)GRE (PGL3(VDRE) (+)GRE luciferase reporter); experiment: Luciferase reporter assay in A549 cells, PGL3(VDRE) (+)GRE vector; assay type: cell-based, human; conditions: FA
Procedure: (§1) Luciferase reporter assay. A549 cells seeded on 24-well tissue culture plates overnight at 70% confluency were transfected with 100 ng pCMV β galactosidase, 200 ng pGL3 reporter plasmids and wherever indicated, with 600 ng pSG5 hVDR plasmid (Green et al., 1988) into each well and maintained in medium containing charcoal treated FCS. 24 hours post-transfection, medium was changed and different compounds were added to it for 6 hours. Final concentrations of the compounds are: FA, 500 nM; Dex or RU24858, 300 nM or 500 nM (wherever 300 nM Dex or RU was used, it is indicated in the figure, in all other cases, 500 nM concentration was used); active vitamin D3, 1 μM; IL-1β, 5 ng/ml; BAY 11-7082, 5 μM, JNK inhibitor II, 25 μM. Luciferase assay was carried out as instructed (Promega). Normalized values are reported as the mean±SEM; each value originates from at least three individual transfections with assays performed in duplicate. […]

[2] = tested on: CYP24A1 gene (a VitD3 target); experiment: CYP24A1 transcript levels in mouse ear epidermis after topical treatment (Q-RT-PCR); assay type: in vivo; conditions: mouse ears, FIG. 10
Excerpt: Mice. […] Real time PCR. Total RNA was reverse transcribed using hexamers, followed by Q-PCR, as reported (Li et al., 2005). The GC agonist fluocinolone acetonide (FA) was applied to ears of mice concomitantly treated with the “low-calcemic” Vitamin D3 (VitD3) analog MC903 (Calcipotriol; hereafter called MC) to trigger TSLP expression (Li et al., 2006). […] As expected, the expression of the GC-inducible GPX3 (glutathione peroxidase 3) gene which harbours a (+)GRE (Tuckermann et al., 1999) was enhanced by FA (FIG. 10) and inhibited by RU co-treatment, while FA or RU had no effect on MC-dependent expression of the CYP24A1 gene (a VitD3 target) (FIG. 10).

[3] = tested on: VDRE reporter plasmid (IR nGRE element deleted); experiment: Luciferase reporter assay in A549 cells, VDRE reporter without IR1 nGRE; assay type: cell-based, human; conditions: FA addition
Procedure: as §1

CC1(C)O[C@@H]2C[C@H]3[C@@H]4C[C@H](F)C5=CC(=O)C=C[C@]5(C)[C@@]4(F)[C@@H](O)C[C@]3(C)[C@]2(C(=O)CO)O1 [FA, fluocinolone acetonide]
luciferase expression when IR1 nGRE replaced by a (+)GRE [1]: increase | effect on MC-dependent expression of the CYP24A1 gene [2]: no effect | luciferase expression in absence of IR1 nGRE [3]: did not affect
